Measured values from patent publication US11214803B2, “Modulators of YAP1 expression” (Ionis Pharmaceuticals, Inc., priority 2019, dated 2022).
Strand notation (5' to 3'): a small letter for the sugar, then the base; units joined by * are phosphorothioate-linked, units joined directly phosphodiester-linked; [ ] holds rarer units or linkages, { } end groups; capitals alone tell only the bases. k = constrained ethyl (cEt); [5mC] = 5-methylcytosine; d = 2'-deoxy (DNA)

The substances below were run on Yap1 mRNA (assay: Antisense inhibition of human Yap1 in A-431 cells by cEt gapmers, single dose (Example 3, RTS36584)). Conditions: Table 8; A-431 cells, 5,000 cells per well, free uptake, 2,000 nM, approximately 48 hours; RTS36584; normalized to RIBOGREEN; Yap1 mRNA relative to untreated control cells.
Assay type: cell-based
Summary of the method: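 Single-dose free-uptake screen of 3-10-3 cEt gapmers in A-431 cells at 2,000 nM over about 48 h. Values are % untreated control Yap1 mRNA.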

Row | Substance | YAP1 (% UTC)
1 | 958348 (k[5mC]*kG*kA*dG*dT*d[5mC]*d[5mC]*d[5mC]*d[5mC]*dG*d[5mC]*dG*dG*kA*k[5mC]*kG; antisense) [Compound 958348] | 122 % UTC
2 | 958413 (antisense k[5mC]*kT*kA*dG*dT*dA*dA*dT*d[5mC]*dT*dT*dA*d[5mC]*kT*kG*kG) [Compound 958413] | 80 % UTC
3 | 958416 (antisense kG*k[5mC]*kT*dG*dT*dG*dT*dA*dG*dG*d[5mC]*dT*dG*kA*k[5mC]*kT) [Compound 958416] | 36 % UTC
4 | 958411 (antisense k[5mC]*kT*kT*dT*dA*d[5mC]*d[5mC]*dA*dA*dA*dA*d[5mC]*dG*kA*kG*kG) [Compound 958411] | 90 % UTC
5 | 958389 (antisense k[5mC]*kG*kG*dA*dG*dG*d[5mC]*dG*d[5mC]*dG*d[5mC]*dG*d[5mC]*kA*kT*kT) [Compound 958389] | 126 % UTC
6 | 958375 (antisense kA*kA*kA*dG*d[5mC]*d[5mC]*dT*dT*dA*dG*dA*dG*dT*k[5mC]*kA*kA) [Compound 958375] | 2 % UTC

Same assay, conditions: Table 9; A-431 cells, 5,000 cells per well, free uptake, 2,000 nM, approximately 48 hours; RTS36584; normalized to RIBOGREEN; Yap1 mRNA relative to untreated control cells

Row | Substance | YAP1 (% UTC)
7 | 958491 (kA*k[5mC]*kT*dA*dA*dA*dT*dG*d[5mC]*dT*dG*dT*dG*kA*k[5mC]*kA; antisense) [Compound 958491] | 4 % UTC
8 | 958526 (kA*kG*kT*dA*dA*dG*dA*dA*d[5mC]*dA*dA*dT*d[5mC]*kT*kT*kG; antisense) [Compound 958526] | 6 % UTC
9 | 958441 (antisense kG*k[5mC]*kG*dA*d[5mC]*dG*dG*d[5mC]*dT*dG*d[5mC]*dG*dG*kG*k[5mC]*k[5mC]) [Compound 958441] | 72 % UTC

Same assay, conditions: Table 10; A-431 cells, 5,000 cells per well, free uptake, 2,000 nM oligonucleotide, approx. 48 hours; primer probe set RTS36584; Yap1 mRNA normalized to RIBOGREEN, percent of untreated control

Row | Substance | YAP1 (% UTC)
10 | 958467 (antisense kG*kG*kT*dG*dG*d[5mC]*dA*dG*d[5mC]*d[5mC]*dA*dA*dA*kA*k[5mC]*kA) [Compound 958467] | 32 % UTC
11 | 958672 (kG*kA*kA*d[5mC]*dT*dT*dA*dG*dT*dT*d[5mC]*d[5mC]*d[5mC]*kT*kT*k[5mC]; antisense) [Compound 958672] | 67 % UTC
12 | 958697 (antisense k[5mC]*kT*kA*dA*dA*dG*dA*dT*dG*dA*d[5mC]*dT*dA*k[5mC]*kT*kG) [Compound 958697] | 39 % UTC
13 | 958747 (antisense kG*kT*kA*dA*dA*dG*dA*dG*dG*dG*dT*dG*dA*k[5mC]*kA*kT) [Compound 958747] | 106 % UTC
14 | 958522 (kA*kA*kT*dT*dA*dG*dT*d[5mC]*d[5mC]*dA*dA*dG*dG*kG*kA*kG; antisense) [Compound 958522] | 32 % UTC
15 | 958552 (kT*kA*kT*dT*dA*d[5mC]*dT*d[5mC]*d[5mC]*dT*dG*dT*dA*kG*kA*k[5mC]; antisense) [Compound 958552] | 16 % UTC
16 | 958667 (kT*kG*k[5mC]*d[5mC]*dG*dG*dG*d[5mC]*d[5mC]*d[5mC]*d[5mC]*dT*dA*kT*kG*k[5mC]; antisense) [Compound 958667] | 80 % UTC

Same assay, conditions: Table 11; A-431 cells, 5,000 cells per well, free uptake, 2,000 nM oligonucleotide, approx. 48 hours; primer probe set RTS36584; Yap1 mRNA normalized to RIBOGREEN, percent of untreated control

Row | Substance | YAP1 (% UTC)
17 | 958703 (antisense kG*kA*kT*dA*dA*d[5mC]*dT*dA*dA*dG*d[5mC]*dA*d[5mC]*kT*kA*k[5mC]) [Compound 958703] | 49 % UTC
18 | 958458 (antisense kG*kT*kT*d[5mC]*dA*dT*d[5mC]*dT*dG*dG*dG*dA*d[5mC]*kA*kG*k[5mC]) [Compound 958458] | 12 % UTC
19 | 958818 (kG*kT*kT*dG*dT*d[5mC]*dA*dA*d[5mC]*dT*d[5mC]*dT*dA*kG*kG*kG; antisense) [Compound 958818] | 23 % UTC
20 | 958443 (antisense k[5mC]*kT*k[5mC]*d[5mC]*dA*d[5mC]*dG*dG*dG*d[5mC]*d[5mC]*dG*dA*kG*kG*kT) [Compound 958443] | 90 % UTC
21 | 958723 (antisense kA*kA*k[5mC]*d[5mC]*d[5mC]*dA*d[5mC]*dT*dA*dA*dA*dA*d[5mC]*k[5mC]*kG*kG) [Compound 958723] | 63 % UTC
22 | 958563 (kA*kG*k[5mC]*dT*dT*dT*dT*dG*d[5mC]*d[5mC]*dA*dG*dG*kA*kG*kA; antisense) [Compound 958563] | 3 % UTC
23 | 958518 (k[5mC]*k[5mC]*kA*d[5mC]*dA*dG*dT*dA*dA*dT*dA*dG*d[5mC]*kT*k[5mC]*kT; antisense) [Compound 958518] | 1 % UTC
24 | 958643 (antisense kT*kA*kG*d[5mC]*dA*dA*d[5mC]*d[5mC]*d[5mC]*dA*d[5mC]*d[5mC]*d[5mC]*kT*kG*kG) [Compound 958643] | 59 % UTC

Same assay, conditions: Table 12; A-431 cells, 5,000 cells per well, free uptake, 2,000 nM modified oligonucleotide, approx. 48 hours; RTS36584; normalized to RIBOGREEN; Yap1 mRNA relative to untreated control cells

Row | Substance | YAP1 (% UTC)
25 | 958669 (kG*k[5mC]*kT*dA*dT*d[5mC]*dT*dT*dT*dG*dG*dA*dT*k[5mC]*k[5mC]*kA; antisense) [Compound 958669] | 76 % UTC
26 | 958694 (antisense kA*kT*kT*dG*dG*dT*dG*dG*dT*dG*dT*d[5mC]*dT*k[5mC]*kA*k[5mC]) [Compound 958694] | 41 % UTC
27 | 958814 (kG*kG*k[5mC]*dT*dA*dT*dG*d[5mC]*d[5mC]*dT*d[5mC]*dT*d[5mC]*kT*kT*kA; antisense) [Compound 958814] | 214 % UTC
28 | 958549 (kT*kG*kT*dA*dG*dA*d[5mC]*dA*d[5mC]*dA*dT*dA*d[5mC]*kT*k[5mC]*kT; antisense) [Compound 958549] | 8 % UTC

Same assay, conditions: Table 13; A-431 cells, 5,000 cells per well, free uptake, 2,000 nM modified oligonucleotide, approx. 48 hours; RTS36584; normalized to RIBOGREEN; Yap1 mRNA relative to untreated control cells

Row | Substance | YAP1 (% UTC)
29 | 958580 (kA*kT*kA*dA*dT*d[5mC]*dT*dT*dA*dA*dT*d[5mC]*dT*kG*kT*kG; antisense) [Compound 958580] | 4 % UTC
30 | 958690 (antisense kT*kG*kG*dA*d[5mC]*dT*d[5mC]*dT*dT*dG*dA*dT*d[5mC]*kA*k[5mC]*kA) [Compound 958690] | 26 % UTC
31 | 958480 (antisense kA*kA*k[5mC]*dT*dG*dG*d[5mC]*dT*dT*dA*dT*dG*dG*kA*kA*kA) [Compound 958480] | 24 % UTC

Same assay, conditions: Table 26; Yap1 mRNA by 3-10-3 cEt gapmers targeting SEQ ID NO.: 1, and 2; percent of untreated control

Row | Substance | YAP1 (% UTC)
32 | 1074668 (antisense kT*k[5mC]*k[5mC]*d[5mC]*dA*dA*d[5mC]*dA*dA*d[5mC]*dA*dT*dG*k[5mC]*kT*kA) [compound 1074668] | 20 % UTC
33 | 1075724 (k[5mC]*kT*kA*dT*d[5mC]*dT*dG*dT*d[5mC]*dA*dG*dT*dT*kA*kT*k[5mC]; antisense) [compound 1075724] | 44 % UTC
34 | 1074956 (antisense kA*k[5mC]*k[5mC]*d[5mC]*dG*dG*dG*dT*dT*dT*dT*dT*dG*kT*k[5mC]*kA) [compound 1074956] | 104 % UTC

Same assay, conditions: Table 27; Yap1 mRNA by 3-10-3 cEt gapmers targeting SEQ ID NO.: 1, and 2; percent of untreated control

Row | Substance | YAP1 (% UTC)
35 | 1075277 (antisense kT*kT*kA*dT*dA*dA*dG*dA*dA*d[5mC]*dT*dG*dT*kG*kG*k[5mC]) [compound 1075277] | 13 % UTC
36 | 1074861 (kT*kG*k[5mC]*dT*d[5mC]*dT*dT*dA*d[5mC]*dA*dT*d[5mC]*dT*kA*kA*kA; antisense) [compound 1074861] | 23 % UTC

Same assay, conditions: Table 28; Yap1 mRNA as percent of untreated control; 3-10-3 cEt gapmers targeting SEQ ID NO.: 1, and 2

Row | Substance | YAP1 (% UTC)
37 | 1076398 (antisense k[5mC]*kT*kT*dG*dA*dA*dG*dG*dG*d[5mC]*dT*dA*dT*kG*kG*kA) [compound 1076398] | 62 % UTC
38 | 1075886 (antisense k[5mC]*kA*kT*dA*dA*d[5mC]*dA*d[5mC]*dT*dG*dA*dA*dG*kG*kT*kG) [compound 1075886] | 60 % UTC
39 | 1075374 (antisense kG*kA*kA*dA*dA*dT*dA*d[5mC]*dT*d[5mC]*d[5mC]*dT*d[5mC]*k[5mC]*kT*kA) [compound 1075374] | 27 % UTC

Same assay, conditions: Table 34; Yap1 mRNA as percent of untreated control; 3-10-3 cEt gapmers targeting SEQ ID NO: 1 and 2; single dose

Row | Substance | YAP1 (% UTC)
40 | 1076308 (kA*kG*kT*dA*dA*dT*dT*dA*d[5mC]*d[5mC]*dT*d[5mC]*dT*kA*kA*kT; antisense) [compound 1076308] | 32 % UTC
41 | 1075444 (antisense kA*kT*kA*dA*dA*dT*d[5mC]*d[5mC]*dT*d[5mC]*dA*dT*dG*kT*kG*kG) [compound 1075444] | 112 % UTC
42 | 1075348 (antisense kT*k[5mC]*kA*d[5mC]*dA*dA*dA*dA*d[5mC]*d[5mC]*d[5mC]*dT*dA*k[5mC]*kA*k[5mC]) [compound 1075348] | 96 % UTC

Same assay, conditions: Table 35; Yap1 mRNA as percent of untreated control; 3-10-3 cEt gapmers targeting SEQ ID NO: 1 and 2; single dose

Row | Substance | YAP1 (% UTC)
43 | 1074965 (antisense kG*kT*kG*dT*dT*dT*dA*dG*dG*d[5mC]*dA*dA*dG*k[5mC]*kA*kG) [compound 1074965] | 20 % UTC
44 | 1074261 (antisense k[5mC]*k[5mC]*kG*dA*dG*dT*dT*d[5mC]*dA*dT*d[5mC]*dA*dT*kA*kT*kT) [compound 1074261] | 19 % UTC
45 | 1076245 (k[5mC]*k[5mC]*kT*dA*dA*dA*dA*dA*dA*d[5mC]*dT*dA*dG*kT*kG*kA; antisense) [compound 1076245] | 101 % UTC
46 | 1076373 (antisense kA*kA*k[5mC]*dG*dG*dA*dT*dA*dT*dA*d[5mC]*dA*dA*kT*kA*kA) [compound 1076373] | 10 % UTC
47 | 1075285 (antisense kT*kA*kT*dA*d[5mC]*dA*dT*dA*dG*dT*d[5mC]*dA*dA*kT*kT*k[5mC]) [compound 1075285] | 60 % UTC
